Experimental data reported in patent publication US20080261986A1, “PHARMACEUTICAL FORMULATIONS FOR IONTOPHORETIC DELIVERY OF AN ANTI-FUNGAL DRUG” (priority 2007, published 2008).
Counter-ions that a name gives are not always drawn.

Assays:
[1] = assay type: in vitro ADME; settings: 4 %, pH 3
Experimental: Nails soaked in normal saline for one hour were mounted on a nail adapter and sandwiched between the two chambers of the FDC. […] Anodal iontophoresis was carried out at 0.5 mA/cm^2 for 1 hr using a custom made constant DC power supply. For comparison, passive delivery of the same formulation was performed for 1 hr. For drug release studies, nails loaded with drug were washed to remove the surface drug and were mounted on FDCs. The receiver compartment was filled with pH 3 water. The donor chamber was empty but was covered with parafilm. The receiver compartment medium was sampled daily and the amount of drug released from the drug loaded nails was measured until the cumulative release attained a plateau. Drug delivered into the nail via iontophoresis released terbinafine HCl in a sustained release fashion over approximately 3 weeks at levels far greater than passively loaded nails which reached a plateau only after a few days (FIG. 11). The amount of drug released from iontophoretically loaded nails represented approximately 47% of the initial drug loaded. Undelivered drug was confined to the upper layers of the nail and was hypothesized to be either entrapped or keratin bound. […] Actual release may be slower in vivo since the nail is not in contact with a fluid reservoir with enhanced drug solubility and infinite sink conditions.

[2] = Permeation through hoof membrane in Franz diffusion cell, passive versus iontophoretic; assay type: in vitro ADME, bovine
Experimental: The permeation experiments were conducted to optimize the parameters for iontophoretically-assisted terbinafine HCl into the hoof membrane. In these experiments bovine hoof membranes (˜0.250 mm thickness) were used as a model for human nail plates. The prehydrated (in water for 60 min) hoof membrane was sandwiched between the donor and receptor compartments of Franz diffusion cell (FDC). The receptor compartment was filled with receiver fluid (5 ml of PBS-5% Tween 80 (T80), water or water-T80 as indicated) and the set up was visually examined for any leaks by inverting the FDC. Two ml of drug solutions (5-10 mg/ml) or suspensions (5-10 mg/ml) were placed in the donor compartment of the Franz diffusion cell. […] Aliquots (50 μl) of the receptor phase were taken every 15 minutes for the first two hours and every hour subsequently for 8 h. A last aliquot was taken at 24 h. Some experiments were conducted for longer in which case aliquots were taken daily. […] Control passive experiments were conducted in the same way except for the application of electric current. Data were expressed as means ±standard deviations. All experiments were performed in triplicate. Drug permeation was measured as described above for up to 24 hours (n=3). For iontophoretic permeation, current density of 1 mA cm^2 was applied for 1 hr using carbon electrodes. […]

T. rubrum = test: Antifungal activity of terbinafine loaded nails, agar diffusion assay; assay type: cell-based
Experimental: The nail plates loaded with the formulation containing 4% terbinafine HCl, 21% ethanol (95%), 5% Tween-80, 40% glycerin, 0.3% HEC, 0.2% benzoic acid, 0.01% BHT, and 0.01% disodium EDTA (Formulation TPI-DF-507), by passive diffusion (15 or 60 min) or iontophoresis (Coulombic doses of 0.75, 3, 6, and 12 mA min corresponding to 0.25 mA/cm^2 for 15 min, 0.25 mA/cm^2 for 60 min, 0.5 mA/cm^2 for 60 min, and 1 mA/cm^2 for 60 min, respectively), were tested for antifungal activity. The inoculum, T. rubrum, (ATCC10218) was prepared in sterile saline from 7-10 days old cultures on PDA slants at 30° C. Terbinafine HCl loaded nail pieces (2˜3 mm squares) were placed on the Sabouraud Dextrose Agar plates (Oxoid, Napean, Ontario, Canada) inoculated with T. rubrum. The diameter (mm) of the zones of inhibition were measured using a dial caliper after 4 days of incubation at 30° C. and were compared with the standards. The zone of inhibition for the standards (known drug concentrations: 0.1, 0.2, 0.4, 0.5, 0.6, 0.8, 1.0. 2.0 and 3.0 μg of terbinafine HCl) were determined similarly by loading the drug on 6 mm paper blank disks (Becton Dickinson, Sparks, Md.). Subsequently, the terbinafine HCl standard curve generated was used to calculate the drug dosage out of the nail. […] Based on the passaging study, duration of release of active terbinafine HCl was determined.

## CN(C/C=C/C#CC(C)(C)C)Cc1cccc2ccccc12 [terbinafine HCl, (E)-N-(6,6-dimethyl-2-hepten-4-ynyl)-N-methyl-1-naphthylmethamine hydrochloride]
[1]
  amount of drug released as share of the initial drug loaded: approximately 47%
  duration of sustained release from iontophoretically loaded nails: approximately 3 weeks
[2]; bovine, 10 mg/ml
  time at which iontophoretic drug permeation leveled off: about 8 hrs
[2]; passive delivery, at 24 h, water-T80 and 10 mg/ml drug solution, average of replicates
  drug concentration in the receptor phase: 20 ng/mL
T. rubrum; Formulation TPI-DF-507, 4 days at 30° C.
  zones of inhibition, iontophoresis loaded nails versus passive delivery controls: Significantly larger zones of inhibition
T. rubrum; serial passaging to freshly inoculated plates, 0.5 mA/cm^2 for 60 min
  Duration of terbinafine HCl release from nail samples: at least 36 days
